{"source": "the Deep4Chem optical property database", "experiment": "photoluminescence quantum yield (fraction); solvent given as SMILES", "key": {"[1]": {"details": "in O=P(c1ccccc1)(c1ccccc1)c1ccccc1Oc1ccccc1P(=O)(c1ccccc1)c1ccccc1"}}}
{"molecule": "c1ccc(C2=C(c3ccccc3)c3cccc4c3c(cc3nc5ccccc5nc34)O2)cc1", "values": [{"measurement": "photoluminescence quantum yield", "setting": "in ClCCl", "result": 0.54}]}
{"molecule": "C[Si](C)(c1cccc2ccccc12)[Si](C)(C)c1c2ccccc2cc2ccccc12", "values": [{"measurement": "photoluminescence quantum yield", "setting": "in C1CCCCC1", "result": 0.67}, {"measurement": "photoluminescence quantum yield", "setting": "in CC#N", "result": 0.21}]}
{"molecule": "COC(=O)c1nc2c(N)nc(N(C)C)nc2n1Cc1ccccc1", "values": [{"measurement": "photoluminescence quantum yield", "setting": "in C1COCCO1", "result": 0.95}, {"measurement": "photoluminescence quantum yield", "setting": "in CC#N", "result": 0.75}, {"measurement": "photoluminescence quantum yield", "setting": "in CO", "result": 0.76}, {"measurement": "photoluminescence quantum yield", "setting": "in ClCCl", "result": 0.95}]}
{"molecule": "CN(C)c1ccc2[c](c1)[Sn]([CH3])([CH3])[C]1=CC(=[N+](C)C)C=CC1=C2", "values": [{"measurement": "photoluminescence quantum yield", "setting": "in O", "result": 0.43}]}
{"molecule": "CC(C)(C)c1cc(C(C)(C)C)c2oc3c(c2c1)C=CN1C(=O)C2=C4c5oc6c(C(C)(C)C)cc(C(C)(C)C)cc6c5C=CN4C(=O)C2=C31", "values": [{"measurement": "photoluminescence quantum yield", "setting": "in CN(C)C=O", "result": 0.6}, {"measurement": "photoluminescence quantum yield", "setting": "in ClC(Cl)Cl", "result": 0.99}]}
{"molecule": "CCN(CC)c1ccc2c(c1)C(C)(C)C(=O)C=C2", "values": [{"measurement": "photoluminescence quantum yield", "setting": "in O", "result": 0.09}]}
{"molecule": "CCCCCC(=O)c1cccc2sc3c(c12)P(=O)(c1ccccc1)c1ccccc1-3", "note": "(stereo not drawn)", "values": [{"measurement": "photoluminescence quantum yield", "setting": "in ClCCl", "result": 0.13}]}
{"molecule": "c1ccc(-c2nnc(-c3ccc(-n4c5ccccc5c5ccccc54)cc3)o2)cc1", "values": [{"measurement": "photoluminescence quantum yield", "setting": "in Cc1ccccc1", "result": 0.57}]}
{"molecule": "Cc1ccc2ccc3c(C)ccc4ccc1c2c43", "values": [{"measurement": "photoluminescence quantum yield", "setting": "in CCCCCC", "result": 0.52}, {"measurement": "photoluminescence quantum yield", "setting": "in CO", "result": 0.56}, {"measurement": "photoluminescence quantum yield", "setting": "in ClCCl", "result": 0.4}]}
{"molecule": "COc1cc2c(cc1OC)C1=C[C@H](c3ccc(C)cc3)C3(C(C#N)=C(C#N)N1CC2)c1cc(Cl)ccc1-c1ccc(Cl)cc13", "values": [{"measurement": "photoluminescence quantum yield", "setting": "in ClCCl", "result": 0.00053}]}
{"molecule": "Cc1ccc(N(C)C)cc1C1=C2C=CC(=[N+](C)C)C=C2[Si](C)(C)c2cc(N(C)C)ccc21", "values": [{"measurement": "photoluminescence quantum yield", "setting": "in O", "result": 0.001}]}
{"molecule": "c1ccc(-c2pc3ccccc3s2)cc1", "note": "(stereo not drawn)", "values": [{"measurement": "photoluminescence quantum yield", "setting": "in CC#N", "result": 0.044}]}
{"molecule": "Cc1cccc(C2=Cc3c4ccccc4c4ccccc4[n+]3[B-](F)(F)O2)c1", "values": [{"measurement": "photoluminescence quantum yield", "setting": "in ClC(Cl)Cl", "result": 0.188}]}
{"molecule": "Oc1cc2ccc3cc(O)cc4ccc(c1)c2c34", "values": [{"measurement": "photoluminescence quantum yield", "setting": "in CO", "result": 0.93}]}
{"molecule": "CC(C)[Si](C#Cc1ccc2c(C#C[Si](C(C)C)(C(C)C)C(C)C)cc3c4cc(C#C[Si](C(C)C)(C(C)C)C(C)C)ccc4c(C#C[Si](C(C)C)(C(C)C)C(C)C)cc3c2c1)(C(C)C)C(C)C", "values": [{"measurement": "photoluminescence quantum yield", "setting": "in ClCCl", "result": 0.741}]}
{"molecule": "COc1ccc2c(c1)C(=O)c1ccccc1-2", "values": [{"measurement": "photoluminescence quantum yield", "setting": "in C1CCCCC1", "result": 0.034}, {"measurement": "photoluminescence quantum yield", "setting": "in CC#N", "result": 0.0018}, {"measurement": "photoluminescence quantum yield", "setting": "in CCO", "result": 0}]}
{"molecule": "CCCCN1C(=O)c2cccc3c(C#CC#Cc4ccc5c6c(cccc46)C(=O)N(CCCC)C5=O)ccc(c23)C1=O", "values": [{"measurement": "photoluminescence quantum yield", "setting": "in ClCCl", "result": 0.81}]}
{"molecule": "O=S1c2ccc(-c3c4ccccc4cc4ccccc34)cc2-c2cc(-c3c4ccccc4cc4ccccc34)ccc21", "values": [{"measurement": "photoluminescence quantum yield", "setting": "in C1CCCCC1", "result": 0.31}, {"measurement": "photoluminescence quantum yield", "setting": "in CC#N", "result": 0.14}, {"measurement": "photoluminescence quantum yield", "setting": "in ClCCl", "result": 0.27}]}
{"molecule": "c1cnc(-c2c3ccccc3c(-c3ncccn3)c3ccccc23)nc1", "values": [{"measurement": "photoluminescence quantum yield", "setting": "in ClCCl", "result": 0.79}]}
{"molecule": "CCCCN1\\C(=C/C=C/C=C/C2=[N+](CCCC)c3ccc4ccccc4c3C2(C)C)C(C)(C)c2c1ccc1ccccc21", "values": [{"measurement": "photoluminescence quantum yield", "setting": "in CS(C)=O", "result": 0.291}]}
{"molecule": "Cc1cc(C)c(B(c2ccc(-c3ccc(-c4nc5c6ccccc6c6ccccc6c5[nH]4)cc3)cc2)c2c(C)cc(C)cc2C)c(C)c1", "values": [{"measurement": "photoluminescence quantum yield", "setting": "in C1CCOC1", "result": 0.74}, {"measurement": "photoluminescence quantum yield", "setting": "in CC(C)=O", "result": 0.56}, {"measurement": "photoluminescence quantum yield", "setting": "in CS(C)=O", "result": 0.49}, {"measurement": "photoluminescence quantum yield", "setting": "in Cc1ccccc1", "result": 0.68}, {"measurement": "photoluminescence quantum yield", "setting": "in ClCCl", "result": 0.59}]}
{"molecule": "CCCCCCCCCCOc1cc(OCCCCCCCCCC)cc(C2=C3C(/C=C/c4ccc(OC)cc4)=CC(/C=C/c4ccc(OC)cc4)=[N+]3[B-](F)(F)n3c(/C=C/c4ccc(OC)cc4)cc(C=Cc4ccc(OC)cc4)c32)c1", "values": [{"measurement": "photoluminescence quantum yield", "setting": "in ClC(Cl)Cl", "result": 0.34}]}
{"molecule": "Cc1cc(C)c(B(c2cc(-c3ccc(C(F)(F)F)cc3)sc2-c2sc(-c3ccc(C(F)(F)F)cc3)cc2P(=O)(c2ccccc2)c2ccccc2)c2c(C)cc(C)cc2C)c(C)c1", "values": [{"measurement": "photoluminescence quantum yield", "setting": "in CO", "result": 0.41}]}
{"molecule": "CCCCCCCCOc1ccc(C2=C3C(C)=C(C#Cc4ccc(B(c5c(C)cc(C)cc5C)c5c(C)cc(C)cc5C)cc4)C(C)=[N+]3[B-](F)(F)n3c(C)c(C#Cc4ccc(B(c5c(C)cc(C)cc5C)c5c(C)cc(C)cc5C)cc4)c(C)c32)cc1", "values": [{"measurement": "photoluminescence quantum yield", "setting": "in ClCCl", "result": 0.65}]}
{"molecule": "Cc1ccc2c(c1)c1cc(C)ccc1n2-c1cccc(-n2c3ccc(C)cc3c3cc(C)ccc32)c1C#N", "values": [{"measurement": "photoluminescence quantum yield", "setting": "in Cc1ccccc1", "result": 0.34}, {"measurement": "photoluminescence quantum yield", "setting": "[1]", "result": 0.66}]}
{"molecule": "O=c1c2cccc3cccc(c32)c2nc3c4ccccc4c4ccccc4c3n12", "values": [{"measurement": "photoluminescence quantum yield", "setting": "in ClCCl", "result": 0.15}]}
{"molecule": "CC1(C)c2ccccc2N(c2ccc3c(c2)c2cc(N4c5ccccc5C(C)(C)c5ccccc54)cc4c5ccccc5n3c42)c2ccccc21", "values": [{"measurement": "photoluminescence quantum yield", "setting": "[1]", "result": 0.96}]}
{"molecule": "CN(C)c1ccc(C#Cc2ccc(C#N)cc2)cc1", "values": [{"measurement": "photoluminescence quantum yield", "setting": "in C1CCCCC1", "result": 0.455}, {"measurement": "photoluminescence quantum yield", "setting": "in C1CCOC1", "result": 0.4}, {"measurement": "photoluminescence quantum yield", "setting": "in C1COCCO1", "result": 0.066}, {"measurement": "photoluminescence quantum yield", "setting": "in CC1CCCO1", "result": 0.099}, {"measurement": "photoluminescence quantum yield", "setting": "in CC#N", "result": 0.024}, {"measurement": "photoluminescence quantum yield", "setting": "in CC(C)=O", "result": 0.49}, {"measurement": "photoluminescence quantum yield", "setting": "in CC(C)CC(C)(C)C", "result": 0.032}, {"measurement": "photoluminescence quantum yield", "setting": "in CC(C)O", "result": 0.006}, {"measurement": "photoluminescence quantum yield", "setting": "in CCCCCCCCCCCCCCCC", "result": 0.3}, {"measurement": "photoluminescence quantum yield", "setting": "in CCCCCCCCCCCCCCCCCl", "result": 0.33}, {"measurement": "photoluminescence quantum yield", "setting": "in CCOC(C)=O", "result": 0.33}, {"measurement": "photoluminescence quantum yield", "setting": "in CCOCC", "result": 0.29}, {"measurement": "photoluminescence quantum yield", "setting": "in CN(C)C=O", "result": 0.17}, {"measurement": "photoluminescence quantum yield", "setting": "in CS(C)=O", "result": 0.029}, {"measurement": "photoluminescence quantum yield", "setting": "in Cc1ccccc1", "result": 0.38}]}
